{"source": "patent US11466016B2", "about": "“Pharmaceutical compounds” (priority 2018, dated 2022)", "note": "Where a name gives a salt, the structure may show the parent alone.", "data": [{"biological_target": "SHP2 (Homo sapiens (Human), UniProt Q06124)", "sequence (Q06124 whole entry)": "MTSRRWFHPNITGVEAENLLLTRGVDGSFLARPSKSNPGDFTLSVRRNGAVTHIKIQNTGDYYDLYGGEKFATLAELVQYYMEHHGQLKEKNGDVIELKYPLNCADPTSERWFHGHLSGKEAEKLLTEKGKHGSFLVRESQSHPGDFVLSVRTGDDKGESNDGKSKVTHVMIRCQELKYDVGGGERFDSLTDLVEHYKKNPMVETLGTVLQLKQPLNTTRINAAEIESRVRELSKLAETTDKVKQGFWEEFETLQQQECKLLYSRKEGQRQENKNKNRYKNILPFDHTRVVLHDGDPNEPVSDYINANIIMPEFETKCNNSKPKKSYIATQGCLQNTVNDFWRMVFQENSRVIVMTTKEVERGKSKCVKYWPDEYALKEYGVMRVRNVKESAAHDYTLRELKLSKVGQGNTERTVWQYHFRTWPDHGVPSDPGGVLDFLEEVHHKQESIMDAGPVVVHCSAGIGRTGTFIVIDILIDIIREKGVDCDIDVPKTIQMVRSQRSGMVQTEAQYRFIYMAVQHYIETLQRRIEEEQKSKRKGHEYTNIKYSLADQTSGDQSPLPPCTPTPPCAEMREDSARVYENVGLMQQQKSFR", "test": "SHP2 Biochemical Assay (DiFMUP conversion, pIRS1 activating peptide)", "conditions": "DiFMUP substrate, 0.25 μM pIRS1 peptide, 30 min pre-incubation; average where more than one data point; read-out: SHP2 (IC50)", "units": {"IC50": "nM"}, "values": [{"smiles": "COc1ccc2ccc(-c3c[nH]c4nc(N5[C@@H]6CC[C@H]5C[C@@H](N)C6)cnc34)c(Cl)c2n1", "note": "[Example 27, endo-8-[7-(8-chloro-2-methoxyquinolin-7-yl)-5H-pyrrolo[2,3-b]pyrazin-3-yl]-8-azabicyclo[3.2.1]octan-3-amine, hydrochloride salt]", "IC50": 17}, {"smiles": "COc1cc2c(Cl)c(-c3c[nH]c4nc(N5[C@@H]6CC[C@H]5C[C@@H](N)C6)cnc34)ccc2nc1C", "note": "[Example 42, endo-8-[7-(5-chloro-3-methoxy-2-methylquinolin-6-yl)-5H-pyrrolo[2,3-b]pyrazin-3-yl]-8-azabicyclo[3.2.1]octan-3-amine]", "IC50": 17}, {"smiles": "Cc1nc2c(-c3ccc4ncc(N(C)C)nc4c3Cl)n[nH]c2nc1N1[C@@H]2CC[C@H]1C[C@@H](N)C2", "note": "[Example 136, 7-{6-[endo-3-amino-8-azabicyclo[3.2.1]octan-8-yl]-5-methyl-1H-pyrazolo[3,4-b]pyrazin-3-yl}-8-chloro-N,N-dimethylquinoxalin-2-amine]", "IC50": 9}, {"smiles": "Cc1nc2c(-c3ccc4ncc(N(C)C)nc4c3Cl)n[nH]c2nc1N1C2CCC1CNC2", "note": "[Example 137, 8-Chloro-7-(6-{3,8-diazabicyclo[3.2.1]octan-8-yl}-5-methyl-1H-pyrazolo[3,4-b]pyrazin-3-yl)-N,N-dimethylquinoxalin-2-amine]", "IC50": 21}, {"smiles": "CCOc1cnc2ccc(-c3n[nH]c4nc(N5[C@H]6CC[C@@H]5[C@@H](F)[C@@H](N)C6)c(CO)nc34)c(Cl)c2n1", "note": "[Example 138, {6-[(1R,2S,3S,5S)-3-amino-2-fluoro-8-azabicyclo[3.2.1]octan-8-yl]-3-(5-chloro-3-ethoxyquinoxalin-6-yl)-1H-pyrazolo[3,4-b]pyrazin-5-yl}methanol]", "IC50": 13}, {"smiles": "CCOc1cnc2ccc(-c3n[nH]c4nc(N5[C@H]6CC[C@@H]5[C@@H](F)[C@@H](N)C6)c(C)nc34)c(Cl)c2n1", "note": "[Example 139, (1R,2S,3S,5S)-8-[3-(5-chloro-3-ethoxyquinoxalin-6-yl)-5-methyl-1H-pyrazolo[3,4-b]pyrazin-6-yl]-2-fluoro-8-azabicyclo[3.2.1]octan-3-amine]", "IC50": 22}, {"smiles": "Cc1nc2ccc(-c3n[nH]c4nc(N5[C@@H]6CC[C@H]5[C@@H](F)[C@@H](N)C6)c(CO)nc34)c(Cl)c2s1", "note": "[Example 140, {6-[(1S,2S,3S,5R)-3-amino-2-fluoro-8-azabicyclo[3.2.1]octan-8-yl]-3-(7-chloro-2-methyl-1,3-benzothiazol-6-yl)-1H-pyrazolo[3,4-b]pyrazin-5-yl}methanol]", "IC50": 7.7}, {"smiles": "Cc1c(-c2n[nH]c3nc(N4[C@@H]5CC[C@H]4[C@@H](F)[C@@H](N)C5)c(CO)nc23)ccc2nn(C)c(Cl)c12", "note": "[Example 141, {6-[(1S,2S,3S,5R)-3-amino-2-fluoro-8-azabicyclo[3.2.1]octan-8-yl]-3-(3-chloro-2,4-dimethyl-2H-indazol-5-yl)-1H-pyrazolo[3,4-b]pyrazin-5-yl}methanol]", "IC50": 13}, {"smiles": "Cc1c(-c2n[nH]c3nc(N4[C@@H]5CC[C@H]4C[C@@H](N)C5)c(CO)nc23)ccc2nn(C)c(Cl)c12", "note": "[Example 142, {6-[endo-3-amino-8-azabicyclo[3.2.1]octan-8-yl]-3-(3-chloro-2,4-dimethyl-2H-indazol-5-yl)-1H-pyrazolo[3,4-b]pyrazin-5-yl}methanol]", "IC50": 13}, {"smiles": "COCc1nc2ccc(-c3n[nH]c4nc(N5[C@H]6CC[C@@H]5[C@@H](F)[C@@H](N)C6)c(CO)nc34)c(Cl)c2s1", "note": "[Example 143, {6-[(1R,2S,3S,5S)-3-amino-2-fluoro-8-azabicyclo[3.2.1]octan-8-yl]-3-[7-chloro-2-(methoxymethyl)-1,3-benzothiazol-6-yl]-1H-pyrazolo[3,4-b]pyrazin-5-yl}methanol]", "IC50": 6.1}, {"smiles": "CC(C)Oc1cnc2ccc(-c3n[nH]c4nc(N5[C@H]6CC[C@@H]5[C@@H](F)[C@@H](N)C6)c(CO)nc34)c(Cl)c2n1", "note": "[Example 144, {6-[(1R,2S,3S,5S)-3-amino-2-fluoro-8-azabicyclo[3.2.1]octan-8-yl]-3-[5-chloro-3-(propan-2-yloxy)quinoxalin-6-yl]-1H-pyrazolo[3,4-b]pyrazin-5-yl}methanol]", "IC50": 28}, {"smiles": "Cc1nc2c(-c3ccc4nn(C(C)C)c(C#N)c4c3Cl)n[nH]c2nc1N1[C@H]2CC[C@@H]1[C@@H](F)[C@@H](N)C2", "note": "[Example 145, 5-{6-[(1R,2S,3S,5S)-3-amino-2-fluoro-8-azabicyclo[3.2.1]octan-8-yl]-5-methyl-1H-pyrazolo[3,4-b]pyrazin-3-yl}-4-chloro-2-(propan-2-yl)-2H-indazole-3-carbonitrile, hydrochloride]", "IC50": 36}, {"smiles": "N[C@H]1C[C@@H]2CC[C@H]([C@H]1F)N2c1nc2[nH]nc(-c3ccc4ncc(N5CCOCC5)nc4c3Cl)c2nc1CO", "note": "[Example 147, {6-[(1R,2S,3S,5S)-3-amino-2-fluoro-8-azabicyclo[3.2.1]octan-8-yl]-3-[5-chloro-3-(morpholin-4-yl)quinoxalin-6-yl] 1H-pyrazolo[3,4-b]pyrazin-5-yl}methanol]", "IC50": 14}, {"smiles": "Cc1nc2c(-c3ccc4ncc(N5CCOCC5)nc4c3Cl)n[nH]c2nc1N1[C@H]2CC[C@@H]1[C@@H](F)[C@@H](N)C2", "note": "[Example 148, (1R,2S,3S,5S)-8-{3-[5-chloro-3-(morpholin-4-yl)quinoxalin-6-yl] 5-methyl-1H-pyrazolo[3,4-b]pyrazin-6-yl}-2-fluoro-8-azabicyclo[3.2.1]octan-3-amine]", "IC50": 25}, {"smiles": "CC(C)n1nc2ccc(-c3n[nH]c4nc(N5[C@H]6CC[C@@H]5[C@@H](F)[C@@H](N)C6)c(CO)nc34)c(Cl)c2c1C#N", "note": "[Example 149, 5-{6-[(1R,2S,3S,5S)-3-amino-2-fluoro-8-azabicyclo[3.2.1]octan-8-yl]-5-(hydroxymethyl)-1H-pyrazolo[3,4-b]pyrazin-3-yl}-4-chloro-2-(propan-2-yl)-2H-indazole-3-carbonitrile]", "IC50": 14}, {"smiles": "N[C@H]1C[C@@H]2CC[C@H]([C@H]1F)N2c1nc2[nH]nc(-c3ccc4ncc(N5CCC5)nc4c3Cl)c2nc1CO", "note": "[Example 150, {6-[(1R,2S,3S,5S)-3-amino-2-fluoro-8-azabicyclo[3.2.1]octan-8-yl]-3-[3-(azetidin-1-yl)-5-chloroquinoxalin-6-yl]-1H-pyrazolo[3,4-b]pyrazin-5-yl}methanol]", "IC50": 15}]}, {"test_system": "pERK in HCC827 cells", "test": "Cellular pERK Inhibition Assay (phospho-p44/42 MAPK sandwich ELISA)", "type": "cell-based", "conditions": "at 1 μM", "experimental": "(§1) Cellular pERK Inhibition Assay\n(§2) HCC827 cells (ATCC, Manassas, USA) were seeded into 96-well plates at a density of 1×10^5 cells/well in RPMI medium supplemented with 10% FBS and incubated 24 h. Compounds were diluted first in DMSO and then into serum-free medium, before being added to cells in triplicate to give a final concentration of 0.1% DMSO. Plates were incubated at 37° C. for 0.5 hours in a humidified atmosphere of 5% CO2 in air.\n(§3) Following compound treatment, medium was removed and cells were lysed by adding 50 μL of lysis buffer (Cell Signalling Technology, Beverly, USA) to each well. Plates were then incubated at room temperature for 25 minutes with shaking. pERK levels were measured in lysates using the PathScan® phospho-p44/42 MAPK (Thr202/Tyr204) sandwich ELISA (Cell Signalling Technology, Beverly, USA) as per kit instructions. Briefly, 50 μL of cell lysate was added to 50 μL of ELISA sample diluent in a 96-well ELISA plate and incubated overnight at 4° C. Following washing, 100 μL of detection antibody was added per well and the plates incubated for 1 hour at 37° C. […] Plates were read at 450 nm on a SpectraMax Gemini reader (Molecular Devices, Uckfield, UK).\n(§4) The average signal from blank wells (no cells added) was subtracted from the signals from each sample well. Levels of pERK were then expressed as “percent of control”, using DMSO treated samples as control. […]", "units": {"Cellular pERK assay (percent at stated concentration)": "% at 1 μM"}, "values": [{"smiles": "COc1cc2c(Cl)c(-c3c[nH]c4nc(N5[C@@H]6CC[C@H]5C[C@@H](N)C6)cnc34)ccc2nc1C", "note": "[Example 42, endo-8-[7-(5-chloro-3-methoxy-2-methylquinolin-6-yl)-5H-pyrrolo[2,3-b]pyrazin-3-yl]-8-azabicyclo[3.2.1]octan-3-amine]", "Cellular pERK assay (percent at stated concentration)": 24}]}, {"test_system": "pERK in HCC827 cells", "test": "Cellular pERK Inhibition Assay (phospho-p44/42 MAPK sandwich ELISA)", "type": "cell-based", "conditions": "at 10 uM", "experimental": "as §1, §2, §3, §4", "units": {"Cellular pERK assay (percent at stated concentration)": "% at 10 uM"}, "values": [{"smiles": "COc1ccc2ccc(-c3c[nH]c4nc(N5[C@@H]6CC[C@H]5C[C@@H](N)C6)cnc34)c(Cl)c2n1", "note": "[Example 27, endo-8-[7-(8-chloro-2-methoxyquinolin-7-yl)-5H-pyrrolo[2,3-b]pyrazin-3-yl]-8-azabicyclo[3.2.1]octan-3-amine, hydrochloride salt]", "Cellular pERK assay (percent at stated concentration)": 53}]}]}
